What was measured:
Type in all cases: in vivo, rat
male Wister rats [1] = assay: Experimental tooth movement by closed coil spring (mesial shift of M1), systemic continuous infusion or intermittent injection; settings: for mesial shift of M1 compared with control group: day 3
Source text: (§1) There are two methods for experimental tooth movement, i.e., one wherein an elastic band (made of rubber) is inserted between teeth and another one wherein a closed coil spring for orthodontics is used. The closed coil spring employed herein is Sentalloy closed coil spring 509-21 (made of Ni—Ti, manufactured by Tomy International K.K.) which can give an almost constant traction force of about 30 g within a spring-elongation range of 2 to 3 mm. […] When the initial elongation of the spring is regulated within the above-mentioned range, therefore, a constant force can be applied regardless of orthodontic tooth movement. When a rubber substance is inserted between molars, an extremely large force is applied immediately after the insertion but scarcely any force is applied after the target tooth is shifted by 0.5 mm. Accordingly, either the method with the insertion of an elastic (rubber) band or another one with the use of a closed coil spring may be used in experimental tooth movement within a short period of time. When a tooth is to be shifted over a long time, however, it is appropriate to use the latter method wherein the first molar is mesially shifted by elongating a closed coil spring. The method with the insertion of an elastic (rubber) band was employed in Example 1, while another method with the use of a closed coil spring was employed in Example 2.
(§2) It has been already clarified that the continuous administration of PTH and the intermittent administration thereof differ from each other in their effect on bones. Thus, attempts were made to examine how PTH administered by either method would affect the experimental tooth movement. Use was made of 12 male Wister rats weighing 350 to 400 g. In the continuous PTH-administration group, an osmotic pump (2ML2, manufactured by Alzet, Palo Alto, Calif., USA) was subcutaneously implanted into the dorsal part of each rat followed by the continuous infusion of hPTH (1-34) (manufactured by Peptide Institute Inc., Mino) in a dose of 0.4 μg/100 g body weight/day or 4 μg/100 g body weight/day. As the control groups, use was made of 2 groups including (1) one to which the vehicle was continuously infused, and (2) an intermittent administration group to which 4 μg/100 g body weight/day of PTH was subcutaneously injected into the dorsal part once a day. From the next day of the initiation of the PTH-administration, an ultra-elastic closed coil spring (509-21, manufactured by Tomy International, K.K., Tokyo) was put between the upper incisive tooth and the right first molar M1 followed by the mesial traction of M1 for 12 days (FIG. 6-A, B). After the initiation of the shifting, the precise impression of the upper jaw was taken every 3 days by using a silicone impression material (Exafine, manufactured by GC, Tokyo) and the distance between the first molar and the second molar (M2) was measured on ultra-hard gypsum models (FIG. 6-C). After the completion of shifting over 12 days, arterial blood was collected from the abdominal aorta and various serum parameters were measured. After sacrificing each rat, the upper jaw and the right thickening bone were taken out. The upper jaw was decalcificated and then cut into a paraffin section of 8 μm in thickness involving, in the direction of the major axis, the buccal mesial root and the buccal distal root followed by HE-staining and histological observation. The bone mineral content and bone mineral density of the isolated the femur were measured by dual-x-ray absorptometry (DCS-600, manufactured by Aloka, Tokyo, Japan).

male Wister rats [2] = assay: Experimental tooth movement by closed coil spring (mesial shift of M1), local administration of sustained release dosage form; settings: 1 μg/400 g locally injected every 2 days (sustained release), FIG. 15
Source text: as §1, with “2. […]” for “2.”

male Wister rats [3] = assay: Histological findings of periodontium and alveolar bone in closed coil spring tooth movement; settings: continuous systemic infusion group
Source text: as §2, with “The upper jaw was decalcificated and then cut into a paraffin section of 8 μm in thickness involving, in the direction of the major axis, the buccal mesial root and the buccal distal root followed by HE-staining and histological observation.” left out, “Japan). […]” for “Japan).”

male Wister rats [4] = assay: Experimental tooth movement by elastic band inserted between M1 and M2 (teeth separation), continuous PTH infusion
Source text: as §1
(§3) 18 rats were divided into 4 groups including a control group having 6 animals and 3 PTH-infusion groups each having 4 animals. PTH was dissolved in a citric acid-buffered saline containing 0.05% of Tween 80 and introduced into osmotic pumps. Then these pumps were implanted in the subcutus posterior region of the neck of the rats under ether anetheia. PTH was continuously infused into the rats in doses of 1, 3 and 10 μg/100 g body weight/day and the rats were fed with a standard pelletized feed (manufactured by Oriental Yeast Co., Ltd.). To the rats of the control group, vehicles were exclusively administered. 48 hours after implanting, a piece of an elastic band (0.8 mm in thickness) was inserted between the right upper first molar and second molar (between M1 and M2) of each rat under ether anetheia in accordance with the method of Wong-Rothblatt (1954) as shown in FIG. 1(A). On day 3 of the teeth separation, the rat was sacrificed by ether-inhalation. After cutting out the upper jaw, the distance between the adjacent faces of M1 and M2 was measured with the combined use of contact gauges (manufactured by Sun Dental, Osaka) of 50, 100 and 150 μm in thickness (FIGS. 1(B) and (C)). In the case of the control group, a contact gauge of 50 μm could be inserted between M1 and M2. Thus, the interdental distance was calculated by subtracting 50 μm from the measured distance of each animal. […] The upper jaw was fixed in 4% paraformaldehyde, decalcificated in 4% formic acid and then implanted in paraffin. […] Histological examinations were all performed in the pressured side of the M1 interradicular septa and osteoclasts in the area of 300×700 μm^2 in this region were counted (FIG. 1(C)). Osteoclasts were counted based on the fact that they were large multinuclear cells having been stained with eosin and located adjacent to the bone surface. The statistic differences between the control group and the test group was evaluated in accordance with Wilcoxon's rank-sum calibration method. […]

osteoclasts = assay: Osteoclast count in the pressured side of the M1 interradicular septa during teeth separation; settings: for osteoclast count in the pressured side compared with control group: 10 μg/100 g body weight/day infusion, FIG. 5
Procedure: as §3

male Wister rats [5] = assay: Histological change in pressured periodontia during teeth separation
Procedure: 18 rats were divided into 4 groups including a control group having 6 animals and 3 PTH-infusion groups each having 4 animals. PTH was dissolved in a citric acid-buffered saline containing 0.05% of Tween 80 and introduced into osmotic pumps. Then these pumps were implanted in the subcutus posterior region of the neck of the rats under ether anetheia. PTH was continuously infused into the rats in doses of 1, 3 and 10 μg/100 g body weight/day and the rats were fed with a standard pelletized feed (manufactured by Oriental Yeast Co., Ltd.). To the rats of the control group, vehicles were exclusively administered. 48 hours after implanting, a piece of an elastic band (0.8 mm in thickness) was inserted between the right upper first molar and second molar (between M1 and M2) of each rat under ether anetheia in accordance with the method of Wong-Rothblatt (1954) as shown in FIG. 1(A). On day 3 of the teeth separation, the rat was sacrificed by ether-inhalation. After cutting out the upper jaw, the distance between the adjacent faces of M1 and M2 was measured with the combined use of contact gauges (manufactured by Sun Dental, Osaka) of 50, 100 and 150 μm in thickness (FIGS. 1(B) and (C)). In the case of the control group, a contact gauge of 50 μm could be inserted between M1 and M2. Thus, the interdental distance was calculated by subtracting 50 μm from the measured distance of each animal. […] The upper jaw was fixed in 4% paraformaldehyde, decalcificated in 4% formic acid and then implanted in paraffin. Subsequently, these preparations were cut into continuous mesiodistal sections of 8 μm in thickness and stained with hematoxylin and eosin. Histological examinations were all performed in the pressured side of the M1 interradicular septa and osteoclasts in the area of 300×700 μm^2 in this region were counted (FIG. 1(C)). Osteoclasts were counted based on the fact that they were large multinuclear cells having been stained with eosin and located adjacent to the bone surface. The statistic differences between the control group and the test group was evaluated in accordance with Wilcoxon's rank-sum calibration method. Each of the data was expressed in average±SEM. A P value less than 0.05 was regarded as being statistically significant.
32 rats were divided into 2 test groups each having 16 animals. […] To the rats of the control group, vehicles were exclusively administered. 2 days after implanting osmotic pumps, an elastic band was inserted between the right M1 and M2 of each rat. On days 0, 1, 3 and 5 of the teeth separation (i.e., on days 2, 3, 5 and 7 of the PTH infusion), the rats were sacrificed followed by the same procedures as those performed in Experiment 1.

[6] = 1 μg/100 g body weight/day and 3 μg/100 g body weight/day groups

For human PTH (1-34) [hPTH (1-34)], the tooth shift-promoting effect (male Wister rats [1]; continuous PTH infusion group, after day 9, FIG. 10) was “observed more remarkably”, the “mesial shift of M1 compared with control group” value (male Wister rats [1]; continuous PTH infusion group, FIG. 10) was “slightly significantly promoted” and the “mesial shift of M1 relative to control group” value (male Wister rats [1]; continuous infusion of 4 μg/100 g body weight/day, day 12) was “twice”. For the same molecule, the “mesial shift of M1” value (male Wister rats [1]; continuous infusion of 4 μg/100 g body weight/day, day 12 of tooth movement) was 1.01±0.09 mm, the “shift of M1, dose dependence” value (male Wister rats [1]; continuous infusion of 0.4 or 4 μg/100 g body weight/day, day 12, FIG. 7) was “promoted depending on the dose” and the “mesial shift of M1 compared with control group” value (male Wister rats [1]; intermittent PTH injection group (4 μg/100 g body weight/day s.c. once a day), FIG. 10) was “slightly significantly promoted”. The “M1 shifting distance compared with control group” value (male Wister rats [1]; intermittent PTH injection group, after day 6, FIG. 10) was “no significant difference”, the tooth movement-promoting effect (male Wister rats [2]; after day 9) was “more remarkable” and the “mesial M1 shift” value (male Wister rats [2]; since day 3) was “tendency that the mesial M1 shift was promoted”. The “bone resorption in the mesial alveolar bone of M1 compared with control group” value (male Wister rats [3]) was “energetic bone resorption”, the “bone resorption in the distal side of the alveolar septum” value (male Wister rats [3]; FIG. 16-B) was “remarkable bone resorption was observed over a wide range” and the “necrotic tissue in the periodontal membrane, compared with control group” value (male Wister rats [3]; FIG. 16-B) was “no such necrotic tissue”.

B1: human PTH (1-84) (protein, UniProt P01270 32-115, looked up)
Parathyroid hormone: SVSEIQLMHNLGKHLNSMERVEWLRKKLQDVHNFVALGAPLAPRDAGSQRPRKKEDNVLVESHEKSLGEADKADVNVLTKAKSQ
modifications: Parathyroid hormone
notes: recombinant human parathyroid hormone consisting of 84 amino acid residues
For B1, the “distance between M1 and M2 compared with control group” value (male Wister rats [4]; Experiment 1, 10 μg/100 g body weight/day continuous infusion, elastic band for 3 days, FIG. 2) was “significant increase”, the “teeth separation distance compared with control group” value (male Wister rats [4]; Experiment 2, 10 μg/100 g body weight/day infusion, day 1, FIG. 3) was “no significant difference” and the “teeth separation distance compared with control group” value (male Wister rats [4]; Experiment 2, 10 μg/100 g body weight/day infusion, day 3, FIG. 3) was “significant increase”. The teeth separation (male Wister rats [4]; Experiment 2, 10 μg/100 g body weight/day infusion, day 5, FIG. 3) was “almost reached the limit”, the “dose of PTH infusion achieving the maximum effect on teeth separation” value (male Wister rats [4]; continuous infusion of 1, 3 and 10 μg/100 g body weight/day, day 3 of teeth separation, FIG. 2) was 10 μg/100 g body weight/day and the “osteoclast count in the pressured side compared with control group” value (osteoclasts; day 5) was “no significant difference”. For the same molecule, the “osteoclast count in the pressured side compared with control group” value (osteoclasts; from day 1) was “significant increase”, the “osteoclast count in the pressured side of the periodontia, test groups and control group compared” value (osteoclasts; 1, 3 and 10 μg/100 g body weight/day infusion (all 3 test groups), elastic band for 3 days, FIG. 4) was “significant increase” and the “bone resorption compared with vehicle-treated rats” value (male Wister rats [5]; [6]) was “bone resorption seemingly arose over wider range”. For the same molecule, the “necrotic tissue in the pressured periodontia” value (male Wister rats [5]; [6]) was “necrotic tissue was also observed”, the “necrotic tissue in the pressured periodontia” value (male Wister rats [5]; 10 μg/100 g body weight/day, day 1 of teeth separation) was “necrotic tissue was observed” and the “necrotic tissue in the pressured periodontia” value (male Wister rats [5]; 10 μg/100 g body weight/day, day 3 of teeth separation) was “no necrosis”.

Reference: US20040204342A1, “Orthodontic remedies containing” (CHUGAI SEIYAKU KABUSHIKI KAISHA, priority 1996, published 2004)
